Results published in article PMC6691133, “Targeting PFKFB3 alleviates cerebral ischemia-reperfusion injury in mice” (Scientific Reports, 2019).

Molecular target: T1, 6-phosphofructo-2-kinase/fructose-2,6-bisphosphatase-3 (PFKFB3) (Homo sapiens, UniProt Q16875)
T1 construct: Recombinant full length human PFKFB3 protein purified from Sf9 baculoviral system
Experiment: ADP-Glo kinase assay with recombinant PFKFB3 (ATP + F6P)
Format: biochemical

T1 sequence (Q16875 whole entry): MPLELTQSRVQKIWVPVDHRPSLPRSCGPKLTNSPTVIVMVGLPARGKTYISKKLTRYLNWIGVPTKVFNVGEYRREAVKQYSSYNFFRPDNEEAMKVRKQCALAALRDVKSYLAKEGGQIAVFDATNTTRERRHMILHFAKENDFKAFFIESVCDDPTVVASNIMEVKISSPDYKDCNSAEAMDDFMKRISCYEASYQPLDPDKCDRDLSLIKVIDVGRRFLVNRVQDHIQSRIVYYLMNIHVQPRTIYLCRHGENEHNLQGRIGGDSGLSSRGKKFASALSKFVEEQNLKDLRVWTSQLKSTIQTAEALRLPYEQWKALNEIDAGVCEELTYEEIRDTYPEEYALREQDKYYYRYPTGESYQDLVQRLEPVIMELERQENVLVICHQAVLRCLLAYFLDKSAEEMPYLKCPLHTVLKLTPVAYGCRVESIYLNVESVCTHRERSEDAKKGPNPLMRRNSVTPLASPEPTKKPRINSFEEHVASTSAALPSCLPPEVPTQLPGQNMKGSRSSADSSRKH

Cc1noc(C)c1Cn1cc(C#N)c2cc(Oc3ccc(NC(=O)[C@@H]4CCCN4)cc3)ccc21 [AZ67]
IC50: 18 nM
